Where a SMILES comes first, the peptide text is derived from it. [ ]: non-standard residue; d: D form. The star is where a group is joined. NMe2Phe = CN(C)[C@@H](Cc1ccccc1)C(=O)*; Lys(Me2) = CN(C)CCCC[C@H](N)C(=O)O
Legend:
[1] = ALD evaluation, iv administration in rat; type: in vivo; settings: for [μM] T = 0, lethal concentration: first value of the cell, assigned to rat iv because it fits μmol Riv; for μg/dose (Riv), lethal dose / μmol Riv, lethal dose: iv administration in rat; for Lethality, verification dosing: 10.0 μM, one naive animal
Method: (§1) In the following description, Riv=iv administration in rat, Rim=intramuscular administration in rat, Miv=iv administration in mouse, and Mim=intramuscular administration in mouse.
(§2) Lethality data and clinical observations were collected during the ALD evalution of the peptides denoted D5-F, DP-1, DP-1m. The data presented below are complete for D5-F and DP-1.
(§3) For all three compounds, two replicates were performed with both mice and rats. In the first replicate, the animals (one animal/dose) were exposed to a range of doses, 10.0, 5.0, 2.5, 1.0, 0.5, 0.25, 0.1, 0.05, 0.025, and 0.01 μM. For the second replicate, the lethal dose was diluted to produce an intermediate dose between the lethal dose and the subsequent nonlethal dose.
Replicate2: For all compounds, the high dose was diluted to 7.5 μM for the second replicate. The doses administered were 7.5, 5.0, 2.5, 1.0, 0.5. 0.25, and 0.1 μM. D5F, DP1, and DP1m were lethal at 7.5 μM and were not lethal at the lower doses.
The lethality of the high dose was verified by dosing one animal with the lethal dose determined by Replicate 1. The rats used for the evaluation were remaining from the original shipment and were naive for treatment. The doses were the following: D5F, 10.0 μM; DP1, 10.0 μM; and DP1m, 10.0 μM.

[2] = ALD evaluation, iv administration in mouse; type: in vivo; settings: for μg/dose (Miv), lethal dose / μmol Miv, lethal dose: iv administration in mouse; for [μM] T = 0, lethal concentration: second value of the cell (single value for D5-F), assigned to mouse iv because it fits μmol Miv; for Lethality, verification dosing / Lethality: mice; for Lethality, verification dosing: one animal previously exposed to 0.01 μM
Method: as §1, §2, §3
Replicate 2: For D5F and DP1, the high dose was diluted to 7.5 μM for the second replicate. The doses administered were 7.5, 5.0, 1.0, 0.5, 0.25, 0.1, 0.05, 0.025, and 0.01 μM. D5F was lethal at 7.5 μM, whereas DP1 was not. DP1m was again not lethal to the mice over the treatment levels delivered.
The effects of the highest dose (lethal--D5F and DP1, nonlethal--DP1 m) were verified by dosing one animal with the effective or highest no effect concentration used in Replicate 1. In the case of D5F, the dose of 7.5 μM was used to verify lethality observed in Replicate 2. The mice treated with these compounds were previously exposed to the lowest dose 0.01 μM. The doses were the following: D5F, 7.5 μM; DP1, 10.0 μM; and DP1m, 10.0 μM.

[3] = ALD evaluation, intramuscular administration in rat; type: in vivo
Method: as §1, §2
For D5F and DP1, two replicates were performed with rats. In the first replicate, the animals (one animal/dose) were exposed to a range of doses; 10.0, 1.0, 0.1, and 0.01 μM. The dose range used was smaller than that originally planned due to the availability of the compound to prepare an adequate amount of dosing solution.

[4] = Solubility at the concentration required for im administration; type: physicochemical
[5] = rats, iv, Replicate 1, lower concentrations
[6] = rats, iv, Replicate 2, lower doses (5.0 to 0.1 μM)
[7] = iv, Replicate 1, lower concentrations (5.0 to 0.01 μM)

SMILES | [μM] T = 0, lethal concentration [1] [µM] | μg/dose (Riv), lethal dose [1] | μmol Riv, lethal dose [1] [µmol] | μg/dose (Miv), lethal dose [2] [μg/dose] | μmol Miv, lethal dose [2] [µmol] | [μM] T = 0, lethal concentration [2] [µM] | μg/dose (Rim), lethal dose [3] | μmol Rim, lethal dose [3] | Lethality, verification dosing ([1]; rats, iv) | Lethality ([1]; rats, iv, Replicate 1, 10.0 μM) | Lethality [1, 5] | Lethality ([1]; rats, iv, Replicate 2, 7.5 μM) | Lethality [1, 6] | Lethality ([2]; iv, Replicate 1, 10.0 μM) | Lethality [2, 7] | Lethality, verification dosing ([2]; iv, 10.0 μM) | also measured
CC[C@H](C)[C@H](NC(=O)[C@H](CCCCN)NC(=O)[C@H](CCCNC(=N)N)NC(=O)[C@H](C)NC(=O)[C@H](CC(C)C)NC(=O)[C@H](CCCCN)NC(=O)[C@H](CCCCN)NC(=O)[C@H](CC(C)C)NC(=O)[C@H](CCCNC(=N)N)NC(=O)[C@H](CCCNC(=N)N)NC(=O)CNC(=O)[C@@H](NC(=O)[C@H](CCCNC(=N)N)NC(=O)[C@H](CCCCN)NC(=O)[C@@H](NC(=O)[C@H](C)NC(=O)[C@H](CCCNC(=N)N)NC(=O)[C@H](CCCCN)NC(=O)[C@H](CCCNC(=N)N)NC(=O)[C@@H](N)CCCCN)C(C)C)C(C)C)C(=O)N[C@@H](C)C(=O)N[C@@H](CCCNC(=N)N)C(=O)N[C@@H](CC(C)C)C(=O)NCC(=O)N[C@H](C(=O)N[C@@H](C)C(=O)N[C@@H](Cc1ccccc1)C(=O)O)C(C)C [Peptide 13] (H-KRKRAVKRVGRRLKKLARKIARLGVAF-OH) | 2.0 | 1,269.78 μg/dose | 0.4 | 158.72 | 0.05 | 2.5 | not lethal | not lethal | – | – | – | – | – | – | – | – | –
CC[C@H](C)[C@H](NC(=O)[C@H](C)NC(=O)[C@H](CCCNC(=N)N)NC(=O)[C@H](CC(C)C)NC(=O)CNC(=O)[C@@H](NC(=O)[C@H](C)NC(=O)[C@@H](N)Cc1ccccc1)C(C)C)C(=O)N[C@@H](CCCCN)C(=O)N[C@@H](CCCNC(=N)N)C(=O)N[C@@H](C)C(=O)N[C@@H](CC(C)C)C(=O)N[C@@H](CCCCN)C(=O)N[C@@H](CCCCN)C(=O)N[C@@H](CC(C)C)C(=O)N[C@@H](CCCNC(=N)N)C(=O)N[C@@H](CCCNC(=N)N)C(=O)NCC(=O)N[C@H](C(=O)N[C@@H](CCCNC(=N)N)C(=O)N[C@@H](CCCCN)C(=O)N[C@H](C(=O)N[C@@H](C)C(=O)N[C@@H](CCCCN)C(=O)N[C@@H](CC(=O)O)C(=O)N[C@@H](CC(C)C)C(=O)O)C(C)C)C(C)C [Peptide 16] (H-FAVGLRAIKRALKKLRRGVRKVAKDL-OH) | 7.5 | 5,416.19 μg/dose | 1.5 | 541.62 | 0.15 | 7.5 | not lethal | not lethal | dead within four hours | lethal | No lethality | lethal | not lethal | lethal | No lethality | – | Clinical Observations ([1]; rats, iv, 2.5 and 5.0 μM, ends of tails later sloughed off): discoloration of the tail; Lethality, verification dosing ([2]; iv, 7.5 μM): dead within four hours; Lethality ([2]; iv, Replicate 2, 7.5 μM): lethal
CC(C)C[C@H](NC(=O)[C@H](C)NC(=O)[C@H](CCCCN)NC(=O)[C@H](CCCCN)NC(=O)[C@H](CC(C)C)NC(=O)[C@H](C)NC(=O)[C@H](CCCCN)NC(=O)[C@H](CCCCN)NC(=O)[C@H](CC(C)C)NC(=O)[C@H](CCCCN)NC(=O)[C@H](CCCCN)NC(=O)[C@H](CC(C)C)NC(=O)[C@H](C)NC(=O)[C@H](CCCCN)NC(=O)[C@H](CCCCN)NC(=O)[C@H](CC(C)C)NC(=O)[C@H](C)NC(=O)[C@H](CCCCN)NC(=O)[C@H](CC(C)C)NC(=O)[C@H](C)NC(=O)[C@H](CC(C)C)NC(=O)[C@H](C)NC(=O)[C@@H](N)Cc1ccccc1)C(=O)O [Peptide 19] (H-FALALKALKKALKKLKKALKKAL-OH) | 7.5 | 4,689.41 μg/dose | 1.5 | 625.36 | 0.2 | 10.0 | not lethal | not lethal | dead within four hours | lethal | No lethality | lethal | not lethal | lethal | No lethality | dead within four hours | –
CC(C)C[C@H](NC(=O)[C@H](C)NC(=O)[C@H](CCCCN(C)C)NC(=O)[C@H](CCCCN(C)C)NC(=O)[C@H](CC(C)C)NC(=O)[C@H](C)NC(=O)[C@H](CCCCN(C)C)NC(=O)[C@H](CCCCN(C)C)NC(=O)[C@H](CC(C)C)NC(=O)[C@H](CCCCN(C)C)NC(=O)[C@H](CCCCN(C)C)NC(=O)[C@H](CC(C)C)NC(=O)[C@H](C)NC(=O)[C@H](CCCCN(C)C)NC(=O)[C@H](CCCCN(C)C)NC(=O)[C@H](CC(C)C)NC(=O)[C@H](C)NC(=O)[C@H](CCCCN(C)C)NC(=O)[C@H](CC(C)C)NC(=O)[C@H](C)NC(=O)[C@H](CC(C)C)NC(=O)[C@H](C)NC(=O)[C@H](Cc1ccccc1)N(C)C)C(=O)O [Peptide 20] (NMe2Phe-ALAL[Lys(Me2)]AL[Lys(Me2)][Lys(Me2)]AL[Lys(Me2)][Lys(Me2)]L[Lys(Me2)][Lys(Me2)]AL[Lys(Me2)][Lys(Me2)]AL-OH) | 7.5 | 5,139.41 μg/dose | 1.5 | 685.36 | 0.2 | 10.0 | not lethal | not lethal | dead within four hours | lethal | No lethality | lethal | not lethal | not lethal | No lethality | dead within four hours | Lethality ([2]; iv, Replicate 2, over the treatment levels delivered): not lethal; Clinical Observations ([2]; mouse, iv, 10 μM, end of tail later sloughed off): discoloration of the tail; solubility [4]: poor solubility

From patent US5773413A, “Method of combating mammalian neoplasias, and lytic peptides therefor” (Demeter Biotechnologies, Ltd., priority 1995, dated 1998)
